Measured values as given in patent publication US5583155A, “6-amino-1,2-benzopyrones useful for treatment of viral diseases” (Octamer, Inc., priority 1994, dated 1996).

Test system: HIV in human lymphoblasts
Assay: HIV in human lymphoblasts (reverse transcriptase assay)
Format: cell-based
Settings: 18 hours exposure, FIG. 11E
Procedure: In FIGS. 11A through 11E, normal lymphoblasts stimulated with PHA are infected with HIV and at the same time are submitted to various concentrations from 0-10 mM 6-ABP. After the short exposure of 18 hours, both HIV and 6-ABP are removed, FIGS. 11A, 11C, 11E and the 6-ABP in the same concentrations is readded up to 4 days to cultures shown in FIGS. 11B and 11D. At 4 days, proliferation index measured by ^3 H-thymidine incorporation is determined in FIGS. 11A and 11B. […] In FIGS. 11C and […], the viral synthesis or inhibition is measured by p 24 assay.
Human peripheral blood mononuclear cells from a noninfected, normal individual were stimulated for 2 to 3 days with phytohemagglutinin in tissue culture, washed, aliquoted and cultured overnight with 200 TCID or 50 TCID of HIV and were untreated or treated with 0.01, 0.1, 1.0 or 10.0 mM 6-ABP. An additional control was incubated with 10 mM 6-ABP without presence of HIV. After the overnight incubation, […]. The cells were placed in culture in medium containing IL-2, but in the absence of additional 6-ABP, and monitored at 6 days and 12 days for the production of HIV-p24 core antigen, or for measurements of particulate reverse transcriptase. […]
HIV p24 antigen was measured by ELISA, with a cutoff of 5 pgm/ml. […]

## Nc1ccc2oc(=O)ccc2c1 [6-ABP, 6-amino-1,2-benzopyrone]
  virus inhibition, reverse transcriptase assay: virus inhibition
